Assay: excess molar enthalpy (molar enthalpy of mixing); xn = mol fraction of the nth substance listed
Details: 101 kPa, Liquid, Flow calorimetry

CC1(C)C(=O)[C@]2(C)CC[C@H]1C2 [(-)-fenchone] + CCO
excess molar enthalpy [kcal/mol]
Details	283.15 K	298.15 K	313.15 K	328.15 K
x1 = 0.048	0.0418	0.0476	0.0528	0.0586
x1 = 0.097	0.0805	0.0913	0.102	0.112
x1 = 0.195	0.141	0.159	0.178	0.196
x1 = 0.286	0.184	0.209	0.234	0.258
x1 = 0.395	0.218	0.249	0.278	0.306
x1 = 0.488	0.23	0.265	0.297	0.326
x1 = 0.601	0.229	0.262	0.291	0.318
x1 = 0.701	0.21	0.239	0.264	0.286
x1 = 0.801	0.172	0.193	0.211	0.227
x1 = 0.894	0.104	0.12	0.131	0.14
x1 = 0.945	0.0569	0.065	0.071	0.076
